{"source": "patent US20220370454A1", "about": "“METHODS FOR TREATING CENTRAL NERVOUS SYSTEM DISORDERS WITH MUSCARINIC RECEPTOR ACTIVATION AND ANTIPSYCHOTICS” (Karuna Therapeutics, Inc., priority 2021, published 2022)", "key": {"Adult male C57BL/6J mice": {"test_system": "Adult male C57BL/6J mice", "assay": "Conditioned avoidance response (CAR) assay, Example 1", "type": "in vivo", "details": "for Effect on conditioned avoidance responding (dose-response, FIG. 1): each compound alone, compiled independent studies; for Avoidance responding versus vehicle-vehicle control, drug alone: subthreshold doses alone (data not shown); for Blockade of xanomeline's effects in CAR by muscarinic antagonist: maximally active dose of xanomeline, FIG. 11, N=14", "source_text": "In the CAR assay, mice were first trained to avoid a foot shock (i.e., crossing from one side of a shuttle box to another within 10 secs) to a performance criterion of ≥85% avoidance responses. A repeated-measures, counterbalanced design was used. Two experiments evaluated the effects of blocking central (with scopolamine) vs. peripheral (with N-methylscopolamine) muscarinic receptors. […] “Subthreshold” of “sub-efficacious” refers to doses that are lower than the therapeutically effective amount for monotherapy but which could be effective in synergy with the antipsychotics tested.\nReferring to FIG. 1, the compiled data over independent studies with each compound were analyzed separately via one-way repeated-measures ANOVA. A Dunnett post-hoc test was performed and that dose group significance was only assessed against Vehicle.\nPost hoc analysis vs. xanomeline alone (*) and vs. comparator dose alone (#)."}, "male C57BL/6J mice": {"test_system": "male C57BL/6J mice", "assay": "Conditioned avoidance response (CAR) assay, Example 2 (enhanced aripiprazole formulation, two sequential injections)", "details": "for Average avoidance response percentages, A alone: Example 2", "protocol": "Also, in Example 2, compounds were delivered as two sequential subcutaneous injections rather than one.\nIn Example 2, a 5% vehicle solution was prepared from 1.0 mL Tween-80 dissolved in 19.0 mL saline. […] The average pH was 3.8 and compound was dosed at a 10 mL/kg bodyweight volume. Drug solutions were prepared fresh on each dosing day before testing. All solutions were mixed or vortexed thoroughly before injections.\nSubjects (N=25) were male C57BL/6J, purchased from Jackson Labs, and successfully trained for CAR. Mice were first tested in an aripiprazole dose response study comprised of VEH, 0.3, 1, 3, and 10 mg/kg (data not shown). Dose order was randomly assigned for each mouse. Mice were returned to their home cages for 30 minutes following injection to allow the drug to take effect before testing began.\nTo match the formulation procedure from Example 1 while maintaining an appropriate volume, a relatively high concentration aripiprazole stock was first made and then diluted to the target concentrations for dosing. A 5% Tween-80 solution was prepared from 2.0 mL Tween-80 dissolved in 38.0 mL of saline. A 3.0 mg/kg aripiprazole solution as a stock was prepared from 3.0 mg aripiprazole dissolved in 5.0 mL 5% Tween-80, giving a concentration of 0.6 mg/mL. At a dosing volume of 5 mL/kg, equaling 3.0 mg/kg. […] The average pH was 6.2. For 0.3 mg/kg aripiprazole, 0.6 mL of the 3 mg/kg aripiprazole stock was diluted in 5.4 mL of 5% Tween-80. For 0.1 mg/kg aripiprazole, 0.2 mL of the 3 mg/kg aripiprazole stock was dissolved in 5.8 mL of 5% Tween-80.\nThe 1.0 mg/kg xanomeline solution was prepared from 3.05 mg xanomeline dissolved in 10.0 mL of sterile water, giving a concentration of 0.2 mg/mL. At a dosing volume of 10 mL/kg, this equals 1.0 mg/kg. (The drug mass adjustment factor between xanomeline free base and xanomeline tartrate is 1.5262.) The average pH was 4.4.\nDose order was randomly assigned for each mouse. Injection 1 and Injection 2 occurred in sequence, with no gap time. Mice were returned to their home cages for 30 minutes following injection to allow the drugs to take effect before testing began. Mice were injected with vehicle (saline at 10 mL/kg SC and Tween-80 at 5 mL/kg IP) the day before dosing days. Mice were only dosed if their average percent avoidance values for the previous two non-dose days was >85%.\nThe study then evaluated the effect of blocking muscarinic receptors (via scopolamine) on the activity and efficacy of aripiprazole in the Conditioned Avoidance Response (CAR) assay. The aripiprazole solution was prepared as before. To prepare the 0.3 mg/kg scopolamine solution, 3.397 mg scopolamine was dissolved in 40 mL of saline. The actual drug weight of SCOP in this solution is 2.4 mg (adjusted by a factor 1.41499 for the salt content), giving a concentration of 0.06 mg/mL. At a dosing volume of 5 mL/kg, this equals 0.3 mg/kg. The average pH of this solution was 7.3."}, "[1]": {"test_system": "MK-801-induced locomotor activity in C57BL/6J mice", "assay": "MK-801-induced locomotor activity (LMA) assay", "type": "in vivo", "source_text": "In the CAR assay, mice were first trained to avoid a foot shock (i.e., crossing from one side of a shuttle box to another within 10 secs) to a performance criterion of ≥85% avoidance responses. A repeated-measures, counterbalanced design was used. Two experiments evaluated the effects of blocking central (with scopolamine) vs. peripheral (with N-methylscopolamine) muscarinic receptors. Additional experiments evaluated augmentation and synergy by combining dosing subthreshold doses of xanomeline plus risperidone or aripiprazole. “Subthreshold” of “sub-efficacious” refers to doses that are lower than the therapeutically effective amount for monotherapy but which could be effective in synergy with the antipsychotics tested.\nIn the LMA assay, varying doses of xanomeline and risperidone were co-formulated. […] After the experiment, plasma and brain tissue were collected to determine drug exposure.\nData are mean (±SEM) total distance traveled."}, "[2]": {"assay": "Brain and plasma drug exposure collected after the LMA study", "type": "in vivo, mice", "source_text": "After the experiment, plasma and brain tissue were collected to determine drug exposure."}}, "data": [{"smiles": "O=C1CCc2ccc(OCCCCN3CCN(c4cccc(Cl)c4Cl)CC3)cc2N1", "note": "[Aripiprazole, aripiprazole]", "values": [{"measurement": "Average avoidance response percentages, A alone", "setting": "Adult male C57BL/6J mice; aripiprazole 1 mg/kg alone", "value": 2, "unit": "%"}, {"measurement": "Average avoidance response percentages, A alone", "setting": "Adult male C57BL/6J mice; aripiprazole 3 mg/kg alone", "value": 6, "unit": "%"}, {"measurement": "Effect on conditioned avoidance responding (dose-response, FIG. 1)", "setting": "Adult male C57BL/6J mice", "value": "dose-dependently reduced conditioned avoidance responding"}, {"measurement": "Avoidance responding versus vehicle-vehicle control, drug alone", "setting": "Adult male C57BL/6J mice", "value": "did not significantly differ from vehicle-vehicle control conditions"}, {"measurement": "Average avoidance response percentages, A alone", "setting": "male C57BL/6J mice; aripiprazole 0.1 mg/kg IP alone", "value": 14, "unit": "%"}, {"measurement": "Average avoidance response percentages, A alone", "setting": "male C57BL/6J mice; aripiprazole 0.3 mg/kg IP alone", "value": 31, "unit": "%"}, {"measurement": "Effects on CAR activity endpoints", "setting": "male C57BL/6J mice; aripiprazole 3 mg/kg IP, FIG. 18, N=15", "value": "robust effects on CAR activity endpoints"}, {"measurement": "Escape failures", "setting": "male C57BL/6J mice; aripiprazole 0.1, 0.3 mg/kg with or without xanomeline 1 mg/kg", "value": "No dose of aripiprazole or combination dose with xanomeline resulted in escape failures"}, {"measurement": "Disruption of CAR performance (dose response)", "setting": "male C57BL/6J mice; aripiprazole 0.3, 1, 3 and 10 mg/kg, data not shown", "value": "effective at disrupting CAR performance in a dose-related manner"}, {"measurement": "Escape failures", "setting": "male C57BL/6J mice; aripiprazole dose response study, 0.3-10 mg/kg", "value": "not evident at any doses"}, {"measurement": "ED50 in CAR", "setting": "male C57BL/6J mice; aripiprazole dose response study, Example 2 formulation", "value": "~0.3", "unit": "mg/kg"}]}, {"smiles": "C[N+]1(C)[C@@H]2C[C@@H](OC(=O)[C@H](CO)c3ccccc3)C[C@H]1[C@@H]1O[C@@H]12", "note": "[N-methyl-scopolamine, N-methylscopolamine]", "values": [{"measurement": "Blockade of the activity of xanomeline in CAR", "setting": "Adult male C57BL/6J mice; 100-fold higher dose of N-methyl-scopolamine", "value": "failed to block the activity of xanomeline"}, {"measurement": "Blockade of xanomeline's effects in CAR by muscarinic antagonist", "setting": "Adult male C57BL/6J mice", "value": "had no effect"}]}, {"smiles": "Cc1nc2n(c(=O)c1CCN1CCC(c3noc4cc(F)ccc34)CC1)CCCC2", "note": "[Risperidone, risperidone]", "values": [{"measurement": "Effect on conditioned avoidance responding (dose-response, FIG. 1)", "setting": "Adult male C57BL/6J mice", "value": "dose-dependently reduced conditioned avoidance responding"}, {"measurement": "Average avoidance response percentages, R alone", "setting": "Adult male C57BL/6J mice; risperidone 0.03 mg/kg alone", "value": 5, "unit": "%"}, {"measurement": "Average avoidance response percentages, R alone", "setting": "Adult male C57BL/6J mice; risperidone 0.1 mg/kg alone", "value": 26, "unit": "%"}, {"measurement": "Average avoidance response percentages, R alone", "setting": "Adult male C57BL/6J mice; risperidone 0.3 mg/kg alone", "value": 85, "unit": "%"}, {"measurement": "Avoidance responding versus vehicle-vehicle control, drug alone", "setting": "Adult male C57BL/6J mice", "value": "did not significantly differ from vehicle-vehicle control conditions"}, {"measurement": "Activity alone against MK-801 stimulated activity", "setting": "[1]; risperidone 0.001 mg/kg alone", "value": "Inactive"}]}, {"smiles": "CCCCCCOc1nsnc1C1=CCCN(C)C1", "note": "[Xanomeline, xanomeline]", "values": [{"measurement": "Effect on conditioned avoidance responding (dose-response, FIG. 1)", "setting": "Adult male C57BL/6J mice", "value": "dose-dependently reduced conditioned avoidance responding"}, {"measurement": "Average avoidance response percentages, X alone", "setting": "Adult male C57BL/6J mice; xanomeline 1 mg/kg alone, aripiprazole combination study (co-formulation, single SC injection), N=16", "value": 5, "unit": "%"}, {"measurement": "Average avoidance response percentages, X alone", "setting": "Adult male C57BL/6J mice; xanomeline 1 mg/kg alone, risperidone combination study, N=17", "value": 7, "unit": "%"}, {"measurement": "Average avoidance response percentages, X alone", "setting": "Adult male C57BL/6J mice; xanomeline 3 mg/kg alone, aripiprazole combination study", "value": 20, "unit": "%"}, {"measurement": "Activity alone against MK-801 stimulated activity", "setting": "[1]; xanomeline 1 mg/kg alone", "value": "Inactive"}, {"measurement": "Xanomeline plasma exposure across the increasing doses of risperidone", "setting": "[2]; co-dosed with risperidone", "value": "no significant increase"}, {"measurement": "Brain level of the named substance", "setting": "[2]; treatment: MK-801 0.3 + risperidone 0.001 + xanomeline 1 mg/kg", "value": "143.4 ± 4.8", "unit": "ng/g"}, {"measurement": "Brain level of the named substance", "setting": "[2]; treatment: MK-801 0.3 + risperidone 0.003 + xanomeline 1 mg/kg", "value": "154.6 ± 9.3", "unit": "ng/g"}, {"measurement": "Brain level of the named substance", "setting": "[2]; treatment: MK-801 0.3 + risperidone 0.01 + xanomeline 1 mg/kg, * p<0.05 vs xanomeline alone", "value": "184.9 ± 15.5* ng/g"}, {"measurement": "Brain level of the named substance", "setting": "[2]; treatment: MK-801 0.3 + xanomeline 1 mg/kg", "value": "126.0 ± 6.6", "unit": "ng/g"}, {"measurement": "Activity in the CAR assay (percentage avoidance responses and latency to respond)", "setting": "male C57BL/6J mice; 1 mg/kg dose alone", "value": "inactive in the CAR assay"}, {"measurement": "Average avoidance response percentages, X alone", "setting": "male C57BL/6J mice; xanomeline 1 mg/kg SC alone, Example 2, N=16", "value": 6, "unit": "%"}]}, {"smiles": "CN1[C@@H]2C[C@@H](OC(=O)[C@H](CO)c3ccccc3)C[C@H]1[C@@H]1O[C@@H]12", "note": "[scopolamine]", "values": [{"measurement": "Blockade of the activity of xanomeline in CAR", "setting": "Adult male C57BL/6J mice; SCOP 0.03 mg/kg", "value": "partially blocks"}, {"measurement": "Blockade of the activity of xanomeline in CAR", "setting": "Adult male C57BL/6J mice; SCOP 0.1 mg/kg", "value": "fully"}, {"measurement": "Activity alone in CAR", "setting": "Adult male C57BL/6J mice; SCOP 0.3 mg/kg", "value": "has no activity alone in CAR"}, {"measurement": "Blockade of xanomeline's effects in CAR by muscarinic antagonist", "setting": "Adult male C57BL/6J mice", "value": "dose-dependently blocked xanomeline's effects"}, {"measurement": "Reversal of xanomeline activity in CAR", "setting": "Adult male C57BL/6J mice; scopolamine 0.3 mg/kg", "value": "fully reversed xanomeline activity"}, {"measurement": "Effect on risperidone's antipsychotic-like effect in CAR", "setting": "Adult male C57BL/6J mice; scopolamine 0.3 mg/kg, FIG. 12, N=16", "value": "failed to attenuate"}, {"measurement": "Effect of scopolamine on the activity of aripiprazole in CAR", "setting": "male C57BL/6J mice; 0.3 mg/kg scopolamine SC 15 minutes before 3.0 mg/kg aripiprazole", "value": "slight, but statistically significant effect in reducing the activity of aripiprazole"}]}]}
